Data as given in patent publication US20210330611A1, “THERAPY FOR NEUROLOGICAL DISEASES/DISORDERS” (priority 2020, published 2021).
Where a name gives a salt, the structure may show the parent alone. Read-outs that look alike come from different tables or passages of the source. Where no end group is shown, it is not given here.

What was measured:
[1] = system: LPS-induced microglia activation; experiment: Image-based assay of LPS-induced microglia activation (HTS and dose response); type: cell-based, rat; conditions: for inhibition at 10 µM: Rattus norvegicus, Microglia, read-out: LPS % inhibition
[2] = system: fibrin-induced microglia activation; experiment: Image-based assay of fibrin-induced microglia activation (HTS and dose response); type: cell-based, rat; conditions: for inhibition at 10 µM: Rattus norvegicus, Microglia, read-out: Fibrin % inhibition
primary rat microglia [3] = experiment: Cell toxicity (dead cells, size <150 μm2) in coated fibrin (cFib) assay;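 further: share of dead cells sized under 150 µm2 at 10 µM in fibrin-stimulated microglia HTS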
[4] = system: fibrin- and LPS-induced microglia activation; experiment: cells; type: cell-based, rat
primary rat microglia [5] = experiment: Cell toxicity (dead cells, size <150 μm2) in LPS assay
[6] = 48 h, primary microglia HTS, LPS stimulation, increased cell size (>800 μm^2) as marker of activation
[7] = primary microglia HTS, fibrin stimulation, increased cell size (>800 μm^2) as marker of activation
[8] = primary microglia HTS, fibrin stimulation, decreased size (<150 μm^2) as marker of toxicity
[9] = quadrant by fibrin and LPS inhibition in HTS of 1907 compounds
[10] = primary microglia HTS, LPS stimulation, decreased size (<150 μm^2) as marker of toxicity
[11] = primary microglia HTS, 10 μM, LPS-stimulated, cell size >800 μm^2 as marker of activation
[12] = primary microglia HTS, 10 μM, fibrin-stimulated, cell size >800 μm^2 as marker of activation
[13] = primary microglia HTS, 10 μM, fibrin assay, cell size <150 μm^2 as marker of toxicity
[14] = HTS of 1907 compounds, quadrant by fibrin and LPS inhibition
[15] = primary microglia HTS, 10 μM, LPS assay, cell size <150 μm^2 as marker of toxicity
[16] = primary HTS, 10 μM, LPS-stimulated primary microglia
[17] = primary HTS, 10 μM, fibrin-stimulated primary microglia
[18] = primary HTS, 10 μM, fibrin assay, dead cells size <150 μm2
[19] = primary HTS, 10 μM, LPS assay, dead cells size <150 μm2
[20] = 48 h, primary microglia HTS, LPS stimulation, activation = cell size >800 μm2
[21] = primary microglia HTS, fibrin stimulation, activation = cell size >800 μm2
[22] = primary microglia HTS, fibrin stimulation, toxicity = cell size <150 μm2
[23] = primary microglia HTS, LPS stimulation, toxicity = cell size <150 μm2

## CCCCCCCCCCCCCCCC[N+](C)(C)C [Cetrimonium]
[1]; [6]
  inhibition at 10 µM: 132%
[2]; [7]
  inhibition at 10 µM: 114%
Primary rat microglia [3]; [8]
  Fibrin % cell toxicity: 28%
[4]; [9]
  Quadrant (FIG. 5b): Q2
Primary rat microglia [5]; [10]
  LPS % cell toxicity: 12%

## CCCc1nc2c(C)cc(-c3nc4ccccc4n3C)cc2n1Cc1ccc(-c2ccccc2C(=O)O)cc1 [Telmisartan]
[1]; [11]
  inhibition at 10 µM: -2%
[2]; [12]
  inhibition at 10 µM: -24%
Primary rat microglia [3]; [13]
  Fibrin % cell toxicity: 0%
[4]; [14]
  Quadrant (FIG. 5b): Q4
Primary rat microglia [5]; [15]
  LPS % cell toxicity: 0%

## CCCC(C)(COC(N)=O)COC(=O)NC(C)C (stereo not shown) [Carisoprodol]
[1]; [16]
  inhibition at 10 µM: -1%
[2]; [17]
  inhibition at 10 µM: 1%
Primary rat microglia [3]; [18]
  Fibrin % cell toxicity: 0%
[4]; primary HTS, 10 μM
  Quadrant (FIG. 5b): Q4
Primary rat microglia [5]; [19]
  LPS % cell toxicity: 0%

## N[C@H]1CONC1=O [Levcycloserine]
[1]; [20]
  inhibition at 10 µM: 12%
[2]; [21]
  inhibition at 10 µM: 2%
Primary rat microglia [3]; [22]
  Fibrin % cell toxicity: 1%
[4]; [9]
  Quadrant (FIG. 5b): Q4
Primary rat microglia [5]; [23]
  LPS % cell toxicity: 0%

## CC1COc2c(N3CCN(C)CC3)c(F)cc3c(=O)c(C(=O)O)cn1c23 (stereo not shown) [Ofloxacin]
[1]; [6]
  inhibition at 10 µM: 16%
[2]; [7]
  inhibition at 10 µM: -13%
Primary rat microglia [3]; [8]
  Fibrin % cell toxicity: 1%
[4]; [9]
  Quadrant (FIG. 5b): Q4
Primary rat microglia [5]; [10]
  LPS % cell toxicity: 0%

## CCOc1ccccc1OCCN[C@H](C)Cc1ccc(OC)c(S(N)(=O)=O)c1.Cl [Tamsulosin Hydrchloride]
[1]; [11]
  LPS % inhibition: 12%
[2]; [12]
  Fibrin % inhibition: −31%
Primary rat microglia [3]; [13]
  Fibrin % cell toxicity: 0%
[4]; [14]
  Quadrant (FIG. 5b): Q4
Primary rat microglia [5]; [15]
  LPS % cell toxicity: 0%

## Cc1cccc(C)c1NC(=O)C1CCCCN1C (stereo not shown) [Mepivacaine]
[1]; [6]
  inhibition at 10 µM: 10%
[2]; [7]
  inhibition at 10 µM: 7%
Primary rat microglia [3]; [8]
  Fibrin % cell toxicity: 0%
[4]; [9]
  Quadrant (FIG. 5b): Q4
Primary rat microglia [5]; [10]
  LPS % cell toxicity: 0%

## COCC1=C(C(=O)OC(C)OC(=O)OC(C)C)N2C(=O)[C@@H](NC(=O)/C(=N\OC)c3csc(N)n3)[C@H]2SC1 (stereo partly shown) [Cefpodoxime Proxetil]
[1]; [16]
  inhibition at 10 µM: 12%
[2]; [17]
  inhibition at 10 µM: -39%
Primary rat microglia [3]; [18]
  Fibrin % cell toxicity: 0%
[4]; primary HTS, 10 μM
  Quadrant (FIG. 5b): Q4
Primary rat microglia [5]; [19]
  LPS % cell toxicity: 0%

## Cc1ccc(C(=O)C(C)CN2CCCCC2)cc1 (stereo not shown) [Tolperisone]
[1]; [11]
  inhibition at 10 µM: 11%
[2]; [12]
  inhibition at 10 µM: -7%
Primary rat microglia [3]; [13]
  Fibrin % cell toxicity: 1%
[4]; [14]
  Quadrant (FIG. 5b): Q4
Primary rat microglia [5]; [15]
  LPS % cell toxicity: 0%

## O=C1/C(=C/c2cccs2)CCC/C1=C\c1cccs1 [Tenylidone]
[1]; [11]
  inhibition at 10 µM: 15%
[2]; [12]
  inhibition at 10 µM: -9%
Primary rat microglia [3]; [13]
  Fibrin % cell toxicity: 1%
[4]; [14]
  Quadrant (FIG. 5b): Q4
Primary rat microglia [5]; [15]
  LPS % cell toxicity: 0%

## C[N+](C)(CCOc1ccccc1)Cc1ccccc1.O=C([O-])c1cc2ccccc2cc1O [Bephenium Hydroxynapthoate]
[1]; [16]
  LPS % inhibition: 19%
[2]; [17]
  Fibrin % inhibition: 25%
Primary rat microglia [3]; [18]
  Fibrin % cell toxicity: 1%
[4]; primary HTS, 10 μM
  Quadrant (FIG. 5b): Q4
Primary rat microglia [5]; [19]
  LPS % cell toxicity: 0%

## RKDVY [Thymopentin]
[1]; [11]
  LPS % inhibition: 20%
[2]; [12]
  Fibrin % inhibition: −20%
Primary rat microglia [3]; [13]
  Fibrin % cell toxicity: 1%
[4]; [14]
  Quadrant (FIG. 5b): Q4
Primary rat microglia [5]; [15]
  LPS % cell toxicity: 0%

## Cc1nnc(SCC2=C(C(=O)O)N3C(=O)[C@@H](NC(=O)Cn4cnnn4)[C@H]3SC2)s1 [Cefazolin]
[1]; [16]
  inhibition at 10 µM: 11%
[2]; [17]
  inhibition at 10 µM: 0%
Primary rat microglia [3]; [18]
  Fibrin % cell toxicity: 1%
[4]; primary HTS, 10 μM
  Quadrant (FIG. 5b): Q4
Primary rat microglia [5]; [19]
  LPS % cell toxicity: 0%

## CCOc1ccccc1OCCN[C@H](C)Cc1ccc(OC)c(S(N)(=O)=O)c1 [Tamsulosin]
[1]; [6]
  inhibition at 10 µM: 59%
[2]; [7]
  inhibition at 10 µM: 20%
Primary rat microglia [3]; [8]
  Fibrin % cell toxicity: 1%
[4]; [9]
  Quadrant (FIG. 5b): Q1
Primary rat microglia [5]; [10]
  LPS % cell toxicity: 2%

## O=C(c1ccc(F)cc1)C1CCN(CCn2c(=O)[nH]c3ccccc3c2=O)CC1 [Ketanserin Tartrate]
[1]; [20]
  inhibition at 10 µM: 15%
[2]; [21]
  inhibition at 10 µM: 17%
Primary rat microglia [3]; [22]
  Fibrin % cell toxicity: 1%
[4]; [9]
  Quadrant (FIG. 5b): Q4
Primary rat microglia [5]; [23]
  LPS % cell toxicity: 0%

## Cc1ccc(Nc2c(F)cccc2Cl)c(CC(=O)O)c1 [Lumiracoxib]
[1]; [6]
  inhibition at 10 µM: 18%
[2]; [7]
  inhibition at 10 µM: 14%
Primary rat microglia [3]; [8]
  Fibrin % cell toxicity: 1%
[4]; [9]
  Quadrant (FIG. 5b): Q4
Primary rat microglia [5]; [10]
  LPS % cell toxicity: 0%

## Cc1onc(-c2ccccc2Cl)c1C(=O)N[C@@H]1C(=O)N2[C@@H]1SC(C)(C)[C@@H]2C(=O)O [Cloxacillin]
[1]; [16]
  inhibition at 10 µM: 17%
[2]; [17]
  inhibition at 10 µM: -13%
Primary rat microglia [3]; [18]
  Fibrin % cell toxicity: 1%
[4]; primary HTS, 10 μM
  Quadrant (FIG. 5b): Q4
Primary rat microglia [5]; [19]
  LPS % cell toxicity: 1%
